For orientation: IC50 means the concentration that inhibits the measured activity by half.

These results are taken from patent US20250129067A1 (Progentos Therapeutics, Inc., priority 2021, published 2025).

The target of data set [1] is PDGFRα (Homo sapiens (Human), UniProt P16234). Description: PDGFRα kinase enzyme assay (Promega PDGFRα Kinase Enzyme System, ADP-Glo). The data set is classed as biochemical. The settings on record: 11-point dose response, 10,000 nM to 0.169 nM; 150 uM ATP; BLQ = below limit of quantitation; read-out: IC50 Values on PDGFRα Kinase Inhibition, IC50. Here is the method: The PDGFRα enzyme assays were conducted per the manufacturer's directions (Promega PDGFRα Kinase Enzyme System and ADP Glo Assay Cat #V8011). […] 20 ng of purified PDGFRα protein was added to the test article. […] ADP-Glo was added to halt the kinase reaction and deplete the remaining ATP. Kinase detection reagent, containing luciferase and luciferin, was used to convert the ADP signal into luminescence. Luminescence was measured using a Molecular Devices Spectramax ID5 and compared to a standard curve to determine kinase activity. IC50s were calculated using Prism 9, Graphpad software.
For orientation: In ADP-Glo the light output rises with the ADP produced.

In data set [2] the test system is Oligodendrocyte progenitor cells (OPCs). Description: In vitro OPC differentiation assay, GPR17 expression (immunocytochemistry). To be noted: 3 μM (10× concentration, final 0.3 μM); 72 hours; fold change over vehicle.

Chain of PDGFRα (P16234 24-1089): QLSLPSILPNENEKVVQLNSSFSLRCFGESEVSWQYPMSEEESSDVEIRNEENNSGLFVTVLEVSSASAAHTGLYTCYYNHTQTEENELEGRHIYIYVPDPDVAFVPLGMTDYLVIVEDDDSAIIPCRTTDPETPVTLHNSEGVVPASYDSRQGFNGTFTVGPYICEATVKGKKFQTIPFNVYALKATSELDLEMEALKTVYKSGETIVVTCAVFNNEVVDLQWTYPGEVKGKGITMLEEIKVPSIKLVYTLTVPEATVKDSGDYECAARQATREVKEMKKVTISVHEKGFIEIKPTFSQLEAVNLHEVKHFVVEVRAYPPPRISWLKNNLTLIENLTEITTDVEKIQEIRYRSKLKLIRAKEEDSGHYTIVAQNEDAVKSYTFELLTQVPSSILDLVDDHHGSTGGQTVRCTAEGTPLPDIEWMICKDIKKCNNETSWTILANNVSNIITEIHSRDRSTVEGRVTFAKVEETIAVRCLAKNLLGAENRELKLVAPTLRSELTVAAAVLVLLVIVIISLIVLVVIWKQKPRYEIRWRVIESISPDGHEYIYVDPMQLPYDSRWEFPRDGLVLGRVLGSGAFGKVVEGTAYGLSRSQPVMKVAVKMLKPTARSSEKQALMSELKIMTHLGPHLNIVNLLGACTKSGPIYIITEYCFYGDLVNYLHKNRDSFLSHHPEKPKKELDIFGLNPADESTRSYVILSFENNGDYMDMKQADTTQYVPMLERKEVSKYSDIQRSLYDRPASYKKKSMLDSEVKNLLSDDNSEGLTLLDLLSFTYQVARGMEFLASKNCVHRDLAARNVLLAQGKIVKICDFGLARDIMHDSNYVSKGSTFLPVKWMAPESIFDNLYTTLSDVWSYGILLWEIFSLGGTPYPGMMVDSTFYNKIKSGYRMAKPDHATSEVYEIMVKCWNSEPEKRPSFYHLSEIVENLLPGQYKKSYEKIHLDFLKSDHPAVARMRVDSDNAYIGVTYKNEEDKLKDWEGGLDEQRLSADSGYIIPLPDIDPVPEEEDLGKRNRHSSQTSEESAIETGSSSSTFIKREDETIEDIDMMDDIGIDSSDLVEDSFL

Regarding `Cn1cc(-c2ccc3c(N4CCN(c5ncc(CC6CCCOC6)cn5)CC4)cnn3c2)cn1` (stereo not drawn) [Compound 185, 6-(1-methyl-1H-pyrazol-4-yl)-3-(4-(5-((tetrahydro-2H-pyran-3-yl)methyl)pyrimidin-2-yl)piperazin-1-yl)pyrazolo[1,5-a]pyridine], the IC50 in data set [1] amounted to 0.51 µM. Besides, the “GPR17 Fold Induction (Over Vehicle; 3 μM)” value (“GPR17 Fold Induction” below) in data set [2] is 12.67.
Turning to `Cn1cc(-c2ccc3c(N4CCN(c5ncc(C(F)(F)c6ccc(F)cc6)cn5)CC4)cnn3c2)cn1` [Compound 262, 3-(4-(5-(difluoro (4-fluorophenyl)methyl)pyrimidin-2-yl)piperazin-1-yl)-6-(1-methyl-1H-pyrazol-4-yl)pyrazolo[1,5-a]pyridine], the IC50 in data set [1] is more than 10 µM. Besides, the “GPR17 Fold Induction” value in data set [2] is listed as 2.61.
The matching figures for `CN(CCCNc1ncc(Cc2ccccc2)cn1)c1cnn2cc(-c3cnn(C)c3)ccc12` [Compound 128, N^1-(5-benzylpyrimidin-2-yl)-N^3-methyl-N^3-(6-(1-methyl-1H-pyrazol-4-yl)pyrazolo[1,5-a]pyridin-3-yl)propane-1,3-diamine]: more than 10 µM and 1.45.
For `Cn1cc(-c2ccc3c(NCCNc4ncc(Cc5ccccc5)cn4)cnn3c2)cn1` [Compound 123, N^1-(5-benzylpyrimidin-2-yl)-N^2-(6-(1-methyl-1H-pyrazol-4-yl)pyrazolo[1,5-a]pyridin-3-yl)ethane-1,2-diamine], in data set [1], the IC50 was more than 10 µM. The “GPR17 Fold Induction” value in data set [2] is recorded as 1.34.
The matching figures for `Cn1cc(-c2ccc3c(N4CCN(c5ncc(Cc6ncon6)cn5)CC4)cnn3c2)cn1` [Compound 301, 3-((2-(4-(6-(1-methyl-1H-pyrazol-4-yl)pyrazolo[1,5-a]pyridin-3-yl)piperazin-1-yl)pyrimidin-5-yl)methyl)-1,2,4-oxadiazole]: more than 10 µM and 2.96.
As for `COc1ccc(-c2ccc3c(N4CCN(C(=O)OC(C)(C)C)CC4)cnn3c2)cc1` [Compound 210, tert-butyl 4-(6-(4-methoxyphenyl)pyrazolo[1,5-a]pyridin-3-yl)piperazine-1-carboxylate], the 50% inhibitory concentration (IC50) in data set [1] came out at 7.48 µM. Besides, the “GPR17 Fold Induction” value in data set [2] is 4.38.
Take `CCC(O)c1cnc(N2CCN(c3cnn4cc(-c5cnn(C)c5)ccc34)CC2)nc1` (stereo not drawn) [Compound 287, 1-(2-{4-[6-(1-methyl-1H-pyrazol-4-yl)pyrazolo[1,5-a]pyridin-3-yl]piperazin-1-yl}pyrimidin-5-yl)propan-1-ol]: the 50% inhibitory concentration (IC50) in data set [1] was 2.47 µM. For the same molecule, in data set [2], the “GPR17 Fold Induction” value was 6.48.
The matching figures for `Cn1cc(-c2ccc3c(N4CCN(c5cnc(Cc6ccccc6)nc5)CC4)cnn3c2)cn1` [Compound 70, 3-[4-(2-benzylpyrimidin-5-yl)piperazin-1-yl]-6-(1-methyl-1H-pyrazol-4-yl)pyrazolo[1,5-a]pyridine]: 6.7 µM and 3.72.
Take `CCCc1ccc2c(N3CCN(C(=O)OC(C)(C)C)CC3)cnn2c1` [Compound 203, tert-butyl 4-(6-propylpyrazolo[1,5-a]pyridin-3-yl)piperazine-1-carboxylate]: in data set [1], the IC50 is more than 10 µM. Also, the “GPR17 Fold Induction” value in data set [2] turned out to be 1.35.
In the case of `Cn1cc(-c2ccn3c(N4CCCN(C(=O)NCc5ccc(C(F)(F)F)cc5)CC4)cnc3n2)cn1` [Compound 120, 4-(7-(1-methyl-1H-pyrazol-4-yl)imidazo[1,2-a]pyrimidin-3-yl)-N-(4-(trifluoromethyl)benzyl)-1,4-diazepane-1-carboxamide], in data set [1], the concentration for half-maximal inhibition (IC50) is more than 10 µM. The “GPR17 Fold Induction” value in data set [2] is 0.87.
The matching figures for `CC1CN(C(=O)OC(C)(C)C)CCN1c1cnn2cc(-c3cnn(C)c3)ccc12` (stereo not drawn) [Compound 240, tert-butyl 3-methyl-4-(6-(1-methyl-1H-pyrazol-4-yl)pyrazolo[1,5-a]pyridin-3-yl)piperazine-1-carboxylate]: 9.41 µM and 4.67.
In the case of `CC(C)(C)OC(=O)N1CCCN(c2cnc3nc(-c4cccnc4)ccn23)CC1` [Compound 106], the half-inhibitory concentration (IC50) in data set [1] was more than 10 µM. Further, the “GPR17 Fold Induction” value in data set [2] is recorded as 0.72.
As to `C[C@@H](OC(=O)N1CCN(c2cnc3nc(-c4cnn(C)c4)ccn23)CC1)c1ccccc1` [Compound 116, (R)-1-phenylethyl 4-(7-(1-methyl-1H-pyrazol-4-yl)imidazo[1,2-a]pyrimidin-3-yl)piperazine-1-carboxylate], the concentration for half-maximal inhibition (IC50) in data set [1] was 6.52 µM. Besides, the “GPR17 Fold Induction” value in data set [2] turned out to be 4.31.
Turning to `Cn1cc(-c2ccc3c(C4=CCC(C(=O)OCc5ccccc5)C4)cnn3c2)cn1` (stereo not drawn) [Compound 133, benzyl 3-[6-(1-methylpyrazol-4-yl)pyrazolo[1,5-a]pyridin-3-yl]cyclopent-3-ene-1-carboxylate], the half-inhibitory concentration (IC50) in data set [1] stood at 1.44 µM. Further, in data set [2], the “GPR17 Fold Induction” value turned out to be 3.02.
For `C[C@@H](OC(=O)N1CCCN(c2cnc3nc(-c4cnn(C)c4)ccn23)CC1)c1ccccc1` [Compound 117, (R)-1-phenylethyl 4-(7-(1-methyl-1H-pyrazol-4-yl)imidazo[1,2-a]pyrimidin-3-yl)-1,4-diazepane-1-carboxylate], the IC50 in data set [1] is more than 10 µM. In data set [2], the “GPR17 Fold Induction” value is 1.39.
Consider `Cn1cnc(-c2ccc3c(N4CCN(C(=O)OC(C)(C)C)CC4)cnn3c2)c1` [Compound 226, tert-butyl 4-(6-(1-methyl-1H-imidazol-4-yl)pyrazolo[1,5-a]pyridin-3-yl)piperazine-1-carboxylate], for which the IC50 in data set [1] amounted to 1.42 µM. For the same molecule, the “GPR17 Fold Induction” value in data set [2] was determined as 11.69.
For `CC(C)(C)OC(=O)N1CCN(c2cnn3cc(-c4ccccn4)ccc23)CC1` [Compound 216, tert-butyl 4-[6-(pyridin-2-yl)pyrazolo[1,5-a]pyridin-3-yl]piperazine-1-carboxylate], the 50% inhibitory concentration (IC50) in data set [1] stood at 1 µM. In data set [2], the “GPR17 Fold Induction” value was 1.92.
As to `CN(Cc1ccc(Cl)cc1)C(=O)N1CCN(c2cnn3cc(-c4cnn(C)c4)ccc23)CC1` [Compound 278, N-(4-chlorobenzyl)-N-methyl-4-[6-(1-methyl-1H-pyrazol-4-yl)pyrazolo[1,5-a]pyridin-3-yl]piperazine-1-carboxamide], the half-maximal inhibitory concentration (IC50) in data set [1] was found to be 1.4 µM. In data set [2], the “GPR17 Fold Induction” value is 6.13.
Regarding `Cn1cc(-c2ccc3c(N4CCN(C(=O)OCC5CC(F)(F)C5)CC4)cnn3c2)cn1` [Compound 308, (3,3-difluorocyclobutyl)methyl 4-[6-(1-methyl-1H-pyrazol-4-yl)pyrazolo[1,5-a]pyridin-3-yl]piperazine-1-carboxylate], the half-maximal inhibitory concentration (IC50) in data set [1] amounted to 2.11 µM. The “GPR17 Fold Induction” value in data set [2] came to 3.67.
The matching figures for `Cn1cc(-c2ccc3c(N4CCN(c5ncnn5Cc5ccccc5)CC4)cnn3c2)cn1` [Compound 239, 3-(4-(1-benzyl-1H-1,2,4-triazol-5-yl)piperazin-1-yl)-6-(1-methyl-1H-pyrazol-4-yl)pyrazolo[1,5-a]pyridine]: more than 10 µM and 1.88.
Turning to `CC(C)(C)OC(=O)N1CCN(c2cnc3cc(C4CCOC4)ncn23)CC1` (stereo not drawn) [Compound 90, tert-butyl 4-(7-(tetrahydrofuran-3-yl)imidazo[1,2-c]pyrimidin-3-yl)piperazine-1-carboxylate], the concentration for half-maximal inhibition (IC50) in data set [1] was more than 10 µM. Moreover, the “GPR17 Fold Induction” value in data set [2] came to 0.92.
